{"source": "patent US20240315315A1", "about": "“COMPOSITION AND METHOD FOR SUPPRESSING PERCEPTION OF SMOKE OR VAPOR ODOR AND FOR SMOKING OR VAPING CESSATION” (University of Kentucky Research Foundation, priority 2023, published 2024)", "key": {"[1]": {"system": "perception of guaiacol", "assay": "Preliminary screen of odorants with guaiacol (physical mixtures in air)", "type": "in vivo, human", "method": "(§1) In all experiments each subject was presented with odor samples in a unique random order. Subjects were instructed to take a single inhalation of each sample. Samples were separated by rest periods of at least 50 sec to minimize adaptation. Target odorants (1-pentanethiol or guaiacol) were sampled thrice by each subject prior to the initiation of an experiment.\n(§2) Dilutions of odorants (0.1-, 0.01-, 0.001-, and 0.0001-fold) were prepared in 10 ml of mineral oil in 250 ml brown Boston round bottles. To mimic the conditions of split-nostril testing, each dilution bottle was paired with a bottle containing 10 ml of mineral oil, with both bottles connected to the same Teflon nozzle. Control samples consisted of pairs of bottles containing 10 ml of mineral oil connected to a Teflon nozzle. Subjects simultaneously sniffed from two nozzles, either an odor dilution through one nostril and a control through the other nostril, or controls through both nostrils. Each subject (n=7-9) sniffed a unique random order of dilutions, rating intensity on a scale of 1-10. Dilutions that gave average intensities in the range of 4-5 were selected.\nIn preliminary screening only physical mixtures were tested. Air mixing was achieved by attaching pairs of 250 ml brown Boston round bottles, one containing the candidate antagonist odorant and the other the target odorant, to a single nozzle. Controls consisted of pairs of bottles, each containing 10 ml of mineral oil, connected to the same Teflon nozzle. Subjects simultaneously sniffed from two nozzles, either a physical mixture through one nostril and the control through the other nostril, or controls through both nostrils. Each sample was repeated so that each physical mixture was sniffed through the left and right nostrils. Each subject sniffed a unique random order of the samples, rating intensity on a scale of 1-10 using Google forms.\n(§3) Like 1-pentanethiol, guaiacol is a key odorant in cigarette smoke and is one of the most important components of a simple mimic of cigarette smoke odor. […] A split-nostril experiment was performed to test these hypotheses and determine whether effects were peripheral or central. […] It was confirmed that effects of the physical and dichorhinic mixtures differed by comparing within-subject responses (FIG. 5B)."}, "[2]": {"system": "perception of guaiacol", "assay": "Split-nostril testing with guaiacol (physical vs dichorhinic mixtures)", "type": "in vivo, human", "conditions": "for perceived pleasantness of mixtures with guaiacol: compared with guaiacol alone; for effect on perceived intensity of guaiacol: physical mixture (same nostril) vs dichorhinic mixture", "method": "as §1, §2\nSubjects simultaneously sniffed from two pairs of bottles, one pair per nostril. Treatment samples included no odorant controls and target odorants (1-pentanethiol or guaiacol) presented alone or mixed in air with masking odorants. Subjects experienced every sample four times, balanced so that pairings of odors were given twice per nostril, with the exception of the no odor control (10 ml of mineral oil in each bottle), which was presented twice. Subjects rated intensity on a gLMS scale (0-100) via a graphical user interface on a computer, followed by rating pleasantness on a linear scale of −10 to +10. Redjade software was used to produce unique random orders for each subject and to collect intensity and pleasantness ratings. Exclusion criteria were ratings of 0 on >25% of treatments (to exclude hyposmic subjects) and a Pearson correlation coefficient of <35% on test-retest across all treatments.\nas §3"}, "[3]": {"system": "perception of 1-pentanethiol", "assay": "Split-nostril testing with 1-pentanethiol (physical vs dichorhinic mixtures)", "type": "in vivo, human", "conditions": "for sex comparison of the effect on perceived intensity of 1-pentanethiol: males vs females, citronellal as physical mixture, pentanol as dichorhinic mixture; for perceived pleasantness of mixtures with 1-pentanethiol: isointense amounts mixed in air (N=29)", "method": "In all experiments each subject was presented with odor samples in a unique random order. Subjects were instructed to take a single inhalation of each sample. Samples were separated by rest periods of at least 50 sec to minimize adaptation. Target odorants (1-pentanethiol or guaiacol) were sampled thrice by each subject prior to the initiation of an experiment. Dilutions of odorants (0.1-, 0.01-, 0.001-, and 0.0001-fold) were prepared in 10 ml of mineral oil in 250 ml brown Boston round bottles. To mimic the conditions of split-nostril testing, each dilution bottle was paired with a bottle containing 10 ml of mineral oil, with both bottles connected to the same Teflon nozzle. Control samples consisted of pairs of bottles containing 10 ml of mineral oil connected to a Teflon nozzle. Subjects simultaneously sniffed from two nozzles, either an odor dilution through one nostril and a control through the other nostril, or controls through both nostrils. Each subject (n=7-9) sniffed a unique random order of dilutions, rating intensity on a scale of 1-10. Dilutions that gave average intensities in the range of 4-5 were selected. Subjects simultaneously sniffed from two pairs of bottles, one pair per nostril. Treatment samples included no odorant controls and target odorants (1-pentanethiol or guaiacol) presented alone or mixed in air with masking odorants. Subjects experienced every sample four times, balanced so that pairings of odors were given twice per nostril, with the exception of the no odor control (10 ml of mineral oil in each bottle), which was presented twice. Subjects rated intensity on a gLMS scale (0-100) via a graphical user interface on a computer, followed by rating pleasantness on a linear scale of −10 to +10. Redjade software was used to produce unique random orders for each subject and to collect intensity and pleasantness ratings. Exclusion criteria were ratings of 0 on >25% of treatments (to exclude hyposmic subjects) and a Pearson correlation coefficient of <35% on test-retest across all treatments. To discriminate peripheral versus CNS odor interaction effects a split-nostril experiment was performed where odorants delivered simultaneously to different nostrils (dichorhinic mixture) can only affect perception via central nervous system (CNS) circuits versus odorants delivered together to the same nostril (physical mixture) where they can affect perception via both peripheral effects and central effects (FIG. 3A). Furthermore, by mixing the odorants in air there is an elimination of reduced volatilization of 1-pentanethiol as a cause of perception of reduced intensity."}, "[4]": {"system": "perception of 1-pentanethiol", "assay": "Preliminary screening for masking of 1-pentanethiol (solution mixtures on cotton balls, intensity and pleasantness ratings)", "type": "in vivo", "conditions": "solution mixture screen, both odorants in the same cotton ball, human subjects (n=24)", "excerpt": "In all experiments each subject was presented with odor samples in a unique random order. Subjects were instructed to take a single inhalation of each sample. Samples were separated by rest periods of at least 50 sec to minimize adaptation. Target odorants (1-pentanethiol or guaiacol) were sampled thrice by each subject prior to the initiation of an experiment. Dilutions (0.1-, 0.01-, 0.001-, and 0.0001-fold) of candidate masking odorants and the key cigarette smoke odorant 1-pentanethiol were prepared in dimethyl sulfoxide. Subjects (5 male and 7 female) sniffed 0.4 ml volumes absorbed in cotton balls from 0.8 ml brown glass vials and rated intensity on a scale of 1-10. Dilutions that gave average intensities in the range of 4-5 were selected for screening tests in which subjects rated intensity on a scale of 1-100 using a paper form. Subjects also rated whether the overall odor of each sample was pleasant or unpleasant (a forced-choice test). Seventeen (17) odorants commonly used as general masking odors or previously tested as cigarette additives designed to improve the perceived pleasantness of cigarette smoke were screened. […] While efficient for screening odorants, the mixing approach used (soaking of both odorants into the same cotton ball) fails to implicate mechanism because it may allow three potential causes for perception of reduced intensity of a target odor: CNS effects where circuit interactions lead to perception of reduced intensity, peripheral effects such as receptor antagonism, and (potentially) reduced volatilization of 1-pentanethiol. Further experiments were required to determine which of these causes explain the effect of citronellal."}, "[5]": {"conditions": "listed as Methyl-2-methylbutyrate"}, "[6]": {"conditions": "dichorhinic mixture, odorants delivered to different nostrils"}, "[7]": {"conditions": "physical mixture delivered to the same nostril, mixed in air"}}, "note": "Entries after “also recorded” stand apart in the source; their conditions may differ. Like-named read-outs stand apart in the source and are kept apart here."}
{"compound": "CCC(C)C(=O)OC", "note": "(centres unmarked) [methyl-2-methylbutyrate, methyl 2-methylbutyrate]", "values": [{"measurement": "interaction with guaiacol (perceived intensity)", "setting": "[1]", "value": "promising effects"}, {"measurement": "interaction with guaiacol (perceived intensity)", "setting": "[1]; [5]", "value": "three largest interactions"}, {"measurement": "perceived pleasantness of mixtures with guaiacol", "setting": "[2]", "value": "no effect of perceived pleasantness"}, {"measurement": "effect on perceived intensity of guaiacol in a physical mixture", "setting": "[2]; male participants (N=6)", "value": "significant decrease"}, {"measurement": "effect on perceived intensity of guaiacol", "setting": "[2]", "value": "suppressed perception of guaiacol, but only when applied via the same nostril as a physical mixture; also recorded: suppress perception"}, {"measurement": "effect on perceived intensity of guaiacol", "setting": "[2]; [5]", "value": "decreases the perceived intensity of guaiacol"}]}
{"compound": "CCCCCS", "note": "[1-pentanethiol]", "values": [{"measurement": "perceived pleasantness of the odorant alone", "setting": "[3]; split-nostril experiment", "value": "moderately unpleasant"}]}
{"compound": "CCOC(=O)C(C)CC", "note": "(centres unmarked) [ethyl-2-methylbutyrate, Ethyl 2-methylbutyrate]", "values": [{"measurement": "interaction with guaiacol (perceived intensity)", "setting": "[1]", "value": "promising effects"}]}
{"compound": "CCCC(O)CCC1C(C)CCCC1(C)C", "note": "(centres unmarked) [Norlimbanol, reference compound]", "values": [{"measurement": "interaction with guaiacol (perceived intensity)", "setting": "[1]", "value": "three largest interactions"}, {"measurement": "perceived pleasantness of mixtures with guaiacol", "setting": "[2]", "value": "no effect of perceived pleasantness"}]}
{"compound": "C=CC(C)(O)CCC=C(C)C", "note": "(centres unmarked) [Linalool, reference compound]", "values": [{"measurement": "interaction with guaiacol (perceived intensity)", "setting": "[1]", "value": "three largest interactions"}, {"measurement": "perceived pleasantness of mixtures with guaiacol", "setting": "[2]", "value": "no effect of perceived pleasantness"}]}
{"compound": "CC(C)=CCCC(C)CC=O", "note": "(centres unmarked) [citronellal]", "values": [{"measurement": "effect on perceived intensity of 1-pentanethiol", "setting": "[4]", "value": "most effective at reducing the perceived intensity of 1-pentanethiol; also recorded: strongest effect"}, {"measurement": "effect on perceived intensity of 1-pentanethiol", "setting": "[4]; listed as Citronellal", "value": "most effective masking odor"}, {"measurement": "effect on perceived intensity of 1-pentanethiol", "setting": "[3]; [6]", "value": "did not affect the perceived intensity of 1-pentanethiol"}, {"measurement": "within-subject comparison of perceived 1-pentanethiol, physical vs dichorhinic mixtures", "setting": "[3]; female participants", "value": "showed no difference"}, {"measurement": "within-subject comparison of perceived 1-pentanethiol, physical vs dichorhinic mixtures", "setting": "[3]; male participants", "value": "nearly all males perceived less 1-pentanethiol in physical mixtures"}, {"measurement": "sex comparison of the effect on perceived intensity of 1-pentanethiol", "setting": "[3]", "value": "stronger in males than in females"}, {"measurement": "effect on perceived intensity of 1-pentanethiol", "setting": "[3]; [7]", "value": "reduced the perceived intensity of 1-pentanethiol; also recorded: suppress perception"}, {"measurement": "effect on perceived intensity of 1-pentanethiol", "setting": "[3]; physical mixture delivered to the same nostril, mixed in air, listed as Citronellal", "value": "decreases the perceived intensity of 1-pentanethiol only when delivered as a physical mixture"}, {"measurement": "perceived pleasantness of mixtures with 1-pentanethiol", "setting": "[3]; split-nostril experiment", "value": "improved pleasantness; also recorded: neither pleasant nor unpleasant on average; also recorded: alleviated"}]}
{"compound": "CCCCCO", "note": "[pentanol]", "values": [{"measurement": "effect on perceived intensity of 1-pentanethiol", "setting": "[4]", "value": "no effect on perception of 1-pentanethiol"}, {"measurement": "effect on perceived intensity of 1-pentanethiol", "setting": "[3]; [6]", "value": "increased the perceived intensity of 1-pentanethiol; also recorded: increases the perceived intensity of 1-pentanethiol only when delivered a dichorhinic mixture"}, {"measurement": "effect on perceived intensity of 1-pentanethiol", "setting": "[3]; dichorhinic mixture, odorants delivered to different nostrils, listed as 1-pentanol", "value": "additive effect mediated centrally"}, {"measurement": "sex comparison of perceived pleasantness of mixtures with 1-pentanethiol", "setting": "[3]; females (N=19) vs males (N=10)", "value": "less pleasant than did males; also recorded: more unpleasant than did males"}, {"measurement": "sex comparison of the effect on perceived intensity of 1-pentanethiol", "setting": "[3]", "value": "apparent in both sexes, but appeared slightly stronger in females"}, {"measurement": "effect on perceived intensity of 1-pentanethiol", "setting": "[3]; [7]", "value": "did not result in any reduction in the perceived intensity of 1-pentanethiol"}, {"measurement": "perceived pleasantness, dichorhinic vs physical mixtures with 1-pentanethiol", "setting": "[3]; split-nostril experiment (N=29)", "value": "less pleasant than physical mixtures; also recorded: more unpleasant than physical mixtures"}, {"measurement": "perceived pleasantness of mixtures with 1-pentanethiol", "setting": "[3]; split-nostril experiment", "value": "did not improve perceived pleasantness; also recorded: little affected"}]}
